Data set [1] is described as follows: Metabolic stability in human liver microsomes. The note with it: LM Clint (intrinsic clearance); 1 μM test compound, 0.5 mg protein/mL microsome, 37° C., up to 60 min. Type of data set: in vitro ADME. Here is the method:
2.1. Test Compound and Control Working Solution Preparation: Working solution: 5 µL of compound and control stock solution (10 mM in dimethyl sulfoxide (DMSO)) were diluted with 495 μL of acetonitrile (ACN) (intermediate solution concentration: 100 μM, 99% ACN).
2.2.1. […] 2.2.2. Preparation Procedure: The appropriate amount of NADPH powder were weighed and diluted into a 10 mM MgCl2 solution (working solution concentration: 10 unit/mL; final concentration in reaction system: 1 unit/mL).
2.3.2. Preparation Procedure: The appropriate concentrations of microsome working solutions were prepared in 100 mM potassium phosphate buffer. 2.4. Stop Solution Preparation: Cold (4° C.) acetonitrile (ACN) containing 200 ng/mL tolbutamide and 200 ng/mL labetalol as internal standards (IS) were used as the stop solution.
2.5.1. Pre-warm empty ‘Incubation’ plates T60 and NCF60 for 10 min minutes. 2.5.2. Liver microsomes were diluted to 0.56 mg/mL in 100 mM phosphate buffer. 2.5.3. 445 uL microsome working solutions (0.56 mg/mL) were transferred into pre-warmed ‘Incubation’ plates T60 and NCF60. Then ‘Incubation’ plates T60 and NCF60 were pre-incubated for 10 min at 37° C. with constant shaking. 54 μL liver microsomes were transferred to blank plate, then 6 μL NAPDH cofactor were added to the blank plate, and then 180 μL quenching solution can be added to blank plate. 2.5.4 5 μL compound working solution (100 μM) were added into ‘incubation’ plates (T60 and NCF60) containing microsomes and mix 3 times thoroughly. 2.5.5. For the NCF60 plate, 50 uL of buffer were added and were mixed 3 times thoroughly. Start timing; plate was incubated at 37° C. for 60 min while shaking. 2.5.6. In ‘Quenching’ plate TO, 180 μL quenching solution were added and 6 μL NAPDH cofactor were added. Ensured the plate was chilled to prevent evaporation. 2.5.7. For the T60 plate, were mixed 3 times thoroughly, and immediately removed 54 μL mixture for the 0-min time point to ‘Quenching’ plate. Then 44 μL NAPDH cofactor were added to incubation plate (T60). Start timing; plate were incubated at 37° C. for 60 min while shaking.
2.5.8. At 5, 10, 20, 30, and 60 min, 180 μL quenching solution were added to ‘Quenching’ plates, mix once, and were serially transferred 60 μL sample from T60 plate per time point to ‘Quenching’ plates.
2.5.9. For NCF60: were mixed once, and 60 μL sample were transferred from the NCF60 incubation to ‘Quenching’ plate containing quenching solution at the 60-min time point.
2.5.10. All sampling plates were shaken for 10 min, then centrifuged at 4000 rpm for 20 minutes at 4° C. 2.5.11. 80 μL supernatant were transferred into 240 μL HPLC water, and were mixed by plate shaker for 10 min. 2.5.12. Each bioanalysis plate were sealed and shaken for 10 minutes prior to LC-MS/MS analysis.
3.1. The equation of first order kinetics were used to calculate T1/2 and Intrinsic clearance (CLint mic) in (μL/min/mg).
Equation of first order kinetic.
(In general: Liver microsomes are a subcellular fraction often used to study metabolism.)

In data set [2] the target is T1, TNIK kinase [amino acid sequence (1-367), Invitrogen] (Homo sapiens, UniProt Q9UKE5).
T1 construct: purchased Invitrogen
T1 sequence (Q9UKE5 1-367): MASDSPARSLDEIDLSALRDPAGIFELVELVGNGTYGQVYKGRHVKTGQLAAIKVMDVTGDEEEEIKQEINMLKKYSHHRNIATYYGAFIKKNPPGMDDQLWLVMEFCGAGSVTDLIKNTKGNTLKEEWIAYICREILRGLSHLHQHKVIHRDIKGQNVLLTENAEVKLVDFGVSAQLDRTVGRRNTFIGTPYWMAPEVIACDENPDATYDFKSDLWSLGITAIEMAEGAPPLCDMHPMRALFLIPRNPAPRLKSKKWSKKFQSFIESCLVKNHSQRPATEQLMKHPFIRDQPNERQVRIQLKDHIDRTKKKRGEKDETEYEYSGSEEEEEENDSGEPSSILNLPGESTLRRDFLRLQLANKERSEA
Briefly: TNIK kinase inhibition assay (Z-lyte FRET-peptide). The note with it: 0.625 nM TNIK kinase, 2 μM Ser/Thr 7 peptide, 64 μM ATP, one hour at room temperature. Type of data set: biochemical.

From patent publication US20240336611A1 (Insilico Medicine IP Limited, priority 2021, published 2024) come the findings set out here.

As usually defined, the IC50 is the concentration at which inhibition is half-maximal. The low end stands for higher potency, the high end for lower potency. For the compound `CC(C)n1cnc(-c2ccc(F)cc2)c1-c1nc(C(=O)Nc2ccc(N3CCN(C)CC3)cc2F)co1` [Compound 28, N-(2-fluoro-4-(4-methylpiperazin-1-yl)phenyl)-2-(4-(4-fluorophenyl)-1-isopropyl-1H-imidazol-5-yl)oxazole-4-carboxamide], the “Human Liver Microsome (μM/min/mg)” value in data set [1] is given as “+ (>100 μM/min/mg as +)”. In addition, the IC50 in data set [2] is 1 to 12 nM.
`CC(C)n1cnc(-c2ccc(F)cc2)c1-c1nc(C(=O)Nc2ccc(N3CCN(C)CC3)cc2F)c[nH]1` [Compound 14, N-(2-fluoro-4-(4-methylpiperazin-1-yl)phenyl)-5′-(4-fluorophenyl)-3′-isopropyl-1H,3′H-[2,4′-biimidazole]-4-carboxamide]: the “Human Liver Microsome (μM/min/mg)” value in data set [1] is reported as “++ (10-100 μM/min/mg as ++)”. Further, in data set [2], the IC50 lay in the range of 1 to 12 nM.
Take `CCN1C2CC1CN(c1ccc(NC(=O)c3csc(-c4c(-c5ccc(F)cc5)ncn4C4CC(F)(F)C4)n3)nc1)C2` [Compound 84, 2-(1-(3,3-difluorocyclobutyl)-4-(4-fluorophenyl)-1H-imidazol-5-yl)-N-(5-(6-ethyl-3,6-diazabicyclo[3.1.1]heptan-3-yl)pyridin-2-yl)thiazole-4-carboxamide]: the “Human Liver Microsome (μM/min/mg)” value in data set [1] was “++ (10-100 μM/min/mg as ++)”. In addition, in data set [2], the IC50 is 1 to 12 nM.
On to `CC(C)n1cnc(-c2ccc(F)cc2)c1-c1nc(C(=O)Nc2ccc(N3C[C@H]4CC[C@@H](C3)N4C)cn2)co1` [Compound 40, 2-(4-(4-fluorophenyl)-1-isopropyl-1H-imidazol-5-yl)-N-(5-((1R,5S)-8-methyl-3,8-diazabicyclo[3.2.1]octan-3-yl)pyridin-2-yl)oxazole-4-carboxamide], for which, in data set [1], the “Human Liver Microsome (μM/min/mg)” value is recorded as “+ (>100 μM/min/mg as +)”. The compound further registered an IC50 in data set [2] of 1 to 12 nM.
As for `CC(C)c1noc(-c2ccc(F)cc2)c1-c1nc(C(=O)Nc2ccc(C3COC3)cn2)cs1` [Compound 93, 2-(5-(4-fluorophenyl)-3-isopropylisoxazol-4-yl)-N-(5-(oxetan-3-yl)pyridin-2-yl)thiazole-4-carboxamide], the “Human Liver Microsome (μM/min/mg)” value in data set [1] is “++ (10-100 μM/min/mg as ++)”. The IC50 in data set [2] fell in the range of 1 to 12 nM.
Consider `O=C(Nc1ccc(C2COC2)cn1)c1csc(-c2c(-c3ccc(F)cc3)ncn2C2CC(F)(F)C2)n1` [Compound 74, 2-(1-(3,3-difluorocyclobutyl)-4-(4-fluorophenyl)-1H-imidazol-5-yl)-N-(5-(oxetan-3-yl)pyridin-2-yl)thiazole-4-carboxamide], for which, in data set [1], the “Human Liver Microsome (μM/min/mg)” value is “+ (>100 μM/min/mg as +)”. This compound also came in with an IC50 in data set [2] of 1 to 12 nM.
Consider `[2H]C([2H])([2H])N1CCN(c2ccc(NC(=O)c3c[nH]c(-c4c(-c5ccc(F)cc5)ncn4C([2H])(C)C)n3)nc2)CC1` [Compound 125, 2-[3-(1-deuterio-1-methyl-ethyl)-5-(4-fluorophenyl)imidazol-4-yl]-N-[5-[4-(trideuteriomethyl)piperazin-1-yl]-2-pyridyl]-1H-imidazole-4-carboxamide], for which, in data set [1], the “Human Liver Microsome (μM/min/mg)” value is given as “++ (10-100 μM/min/mg as ++)”. In data set [2], this compound yielded an IC50 of 1 to 12 nM.
Turning to `CC(C)c1onc(-c2ccc(F)cc2)c1-c1nc(C(=O)Nc2ccc(C3COC3)cn2)cs1` [Compound 94, 2-(3-(4-fluorophenyl)-5-isopropylisoxazol-4-yl)-N-(5-(oxetan-3-yl)pyridin-2-yl)thiazole-4-carboxamide], in data set [1], the “Human Liver Microsome (μM/min/mg)” value is “++ (10-100 μM/min/mg as ++)”. This compound registered an IC50 in data set [2] of 1 to 12 nM.
In the case of `CC(C)n1cnc(-c2ccc(F)cc2)c1-c1nc(C(=O)Nc2ccc(C3CN(C)C3)cc2F)cs1` [Compound 58, N-(2-fluoro-4-(1-methylazetidin-3-yl)phenyl)-2-(4-(4-fluorophenyl)-1-isopropyl-1H-imidazol-5-yl)thiazole-4-carboxamide], the “Human Liver Microsome (μM/min/mg)” value in data set [1] was “++ (10-100 μM/min/mg as ++)”. Besides, in data set [2], the IC50 lay within 1 to 12 nM.
In the same order, the values of `[2H]C([2H])([2H])N1CC(c2ccc(NC(=O)c3nc(-c4c(-c5ccc(F)cc5)ncn4C4CCC4)cs3)c(F)c2)C1` [Compound 122, 4-[3-cyclobutyl-5-(4-fluorophenyl)imidazol-4-yl]-N-[2-fluoro-4-[1-(trideuteriomethyl)azetidin-3-yl]phenyl]thiazole-2-carboxamide] are “++ (10-100 μM/min/mg as ++)” and 1 to 12 nM.
For `CN1[C@@H]2CC[C@H]1CN(c1ccc(NC(=O)c3csc(-c4c(-c5ccc(F)cc5)ncn4C4COC4)n3)nc1)C2` [Compound 51, 2-(4-(4-fluorophenyl)-1-(oxetan-3-yl)-1H-imidazol-5-yl)-N-(5-((1R,5S)-8-methyl-3,8-diazabicyclo[3.2.1]octan-3-yl)pyridin-2-yl)thiazole-4-carboxamide] the same measures were “++ (10-100 μM/min/mg as ++)” and 1 to 12 nM.
As for `CC(C)c1onc(-c2ccc(F)cc2)c1-c1nc(C(=O)Nc2ccc(C3COC3)cc2F)cs1` [Compound 92, N-(2-fluoro-4-(oxetan-3-yl)phenyl)-2-(3-(4-fluorophenyl)-5-isopropylisoxazol-4-yl)thiazole-4-carboxamide], in data set [1], the “Human Liver Microsome (μM/min/mg)” value is on record as “++ (10-100 μM/min/mg as ++)”. The compound also gave an IC50 in data set [2] of 12 to 150 nM.
With `CC(C)n1cnc(-c2ccc(F)cc2)c1-c1nc(C(=O)Nc2ccc(N3CCN(C)CC3)cc2F)cs1` [Compound 6, N-(2-fluoro-4-(4-methylpiperazin-1-yl)phenyl)-2-(4-(4-fluorophenyl)-1-isopropyl-1H-imidazol-5-yl)thiazole-4-carboxamide], the “Human Liver Microsome (μM/min/mg)” value in data set [1] is given as “+ (>100 μM/min/mg as +)”. The compound also gave an IC50 in data set [2] of 1 to 12 nM.
As for `[2H]C([2H])([2H])N1CC(c2ccc(NC(=O)c3nc(-c4c(-c5ccc(F)cc5)ncn4C4CCC4)cs3)nc2)C1` [Compound 121, 4-(1-cyclobutyl-4-(4-fluorophenyl)-1H-imidazol-5-yl)-N-(5-(1-(trideuteriomethyl)azetidin-3-yl)pyridin-2-yl)thiazole-2-carboxamide], in data set [1], the “Human Liver Microsome (μM/min/mg)” value is recorded as “++ (10-100 μM/min/mg as ++)”. The IC50 in data set [2] fell in the range of 1 to 12 nM.
`O=C(Nc1ccc(N2CCOCC2)cn1)c1csc(-c2c(-c3ccc(F)cc3)ncn2C2COC2)n1` [Compound 70, 2-(4-(4-fluorophenyl)-1-(oxetan-3-yl)-1H-imidazol-5-yl)-N-(5-morpholinopyridin-2-yl)thiazole-4-carboxamide]: the “Human Liver Microsome (μM/min/mg)” value in data set [1] was “++ (10-100 μM/min/mg as ++)”. In data set [2], this compound yielded an IC50 of 1 to 12 nM.
Take `CC(C)n1cnc(-c2ccc(F)cc2)c1-c1nc(C(=O)Nc2ccc(C3COC3)cn2)cs1` [Compound 57, 2-(4-(4-fluorophenyl)-1-isopropyl-1H-imidazol-5-yl)-N-(5-(oxetan-3-yl)pyridin-2-yl)thiazole-4-carboxamide]: the “Human Liver Microsome (μM/min/mg)” value in data set [1] is listed as “+ (>100 μM/min/mg as +)”. In data set [2], this compound came in with an IC50 of 1 to 12 nM.
Regarding `CC(C)n1cnc(-c2ccc(F)cc2)c1-c1nc(C(=O)Nc2ccc(C3COC3)cc2F)c[nH]1` [Compound 55, N-(2-fluoro-4-(oxetan-3-yl)phenyl)-5′-(4-fluorophenyl)-3′-isopropyl-1H,3′H-[2,4′-biimidazole]-4-carboxamide], the “Human Liver Microsome (μM/min/mg)” value in data set [1] is recorded as “++ (10-100 μM/min/mg as ++)”. In addition, the IC50 in data set [2] was 1 to 12 nM.
On to `CC(C)n1cnc(-c2ccc(F)cc2)c1-c1nc(C(=O)Nc2ccc(N3CCN(C)CC3)cn2)c[nH]1` [Compound 21, 5′-(4-fluorophenyl)-3′-isopropyl-N-(5-(4-methylpiperazin-1-yl)pyridin-2-yl)-1H,3′H-[2,4′-biimidazole]-4-carboxamide], for which, in data set [1], the “Human Liver Microsome (μM/min/mg)” value is “++ (10-100 μM/min/mg as ++)”. The IC50 in data set [2] lay within 1 to 12 nM.
As to `CCN1CC(c2ccc(NC(=O)c3csc(-c4c(-c5ccc(F)cc5)ncn4C(C)C)n3)nc2)C1` [Compound 91, N-(5-(1-ethylazetidin-3-yl)pyridin-2-yl)-2-(4-(4-fluorophenyl)-1-isopropyl-1H-imidazol-5-yl)thiazole-4-carboxamide], the “Human Liver Microsome (μM/min/mg)” value in data set [1] is reported as “++ (10-100 μM/min/mg as ++)”. This compound displayed an IC50 in data set [2] of 1 to 12 nM.
